This note sets out measurements from patent US5480905A, “Benzodioxane derivatives” (Chugai Seiyaku Kabushiki Kaisha, priority 1991, dated 1996).

One experiment concerns the target T1, serotonin 2 receptor (Rattus norvegicus, UniProt P14842).
T1 construct: the cortex and hippocampal tissue were extracted from the brain; from tissue; host or cells: brain cortex and hippocampus of 7-week-old male S.D. rats, washed membrane homogenate
The experiment is described as follows: Serotonin 2 receptor binding experiment (3H-ketancerine). To be noted: rat cortex and hippocampal tissue; 0.5 nM 3H-ketancerine; IC50 in M; read-out: -logIC50 5-HT2 (converted). Here is the method: (§1) Affinity for intracerebral serotonin 1A and serotonin 2 receptor was checked in accordance with the method of Hall et al. (J. Neurochem., 44, 1685-1695, 1985) and the method of Leysen et al. (Mol. Pharmacol., 21, 301-314, 1982).
(§2) Stated more specifically, the cortex and hippocampal tissue were extracted from the brain of 7-wk old S.D. line male rats, mixed with 20 volumes of Tris-HCl buffer (50 mM, pH 7.7) and homogenized with a Teflon homogenizer. Thereafter, the homogenate was centrifuged at 39800×g for 20 min and the supernatant was discarded. Forty volumes of a buffer were added to the precipitate and the mixture was homogenized with a Polytron homogenizer, with the homogenate being centrifuged under the same condition as set forth above. The same procedure was repeated two more times and the final precipitate was homogenized with 40 volumes of a buffer; thereafter, the homogenate was stored at least overnight at -80° C. On the day when binding experiments were to be conducted, the homogenate was thawed at room temperature and incubated at 37° C. for 20 min to remove the endogenous serotonin.
(§3) Thereafter, centrifugation was conducted at 39800×g for 20 min and 40 volumes of a buffer were added to the precipitate, followed by homogenization. This procedure was repeated three times; to the final precipitate, a buffer was added in 65 volumes for the case of serotonin 1A receptor and in 80 volumes for the case of serotonin 2 receptor and the mixture was homogenized in preparation for the binding experiments that are described below. All procedures of experimentation except storage in a frozen state and thawing at room temperature were conducted at 4° C. or below.
A reaction solution containing 0.5 nM (final concentration) of ^3 H-ketancerine and 500 μl of brain homogenate in 1.0 ml (final volume) of a buffer was incubated at 30° C. for 30 min. Subsequent procedures were the same as in the serotonin 1A receptor binding experiment and IC50 (M) was determined accordingly. To determine the amount of specific binding, the amount of binding in the presence of excess unlabelled methysergide ([…]) was subtracted from the total amount of binding.

In experiment [1] the test system is S.D. line male rats. The experiment is described as follows: Antianxiety effect, water drinking under punishment (Vogel). Type of experiment: in vivo, rat. Details: Antianxiety effect / Antianxiety effect, longevity: unit not given here. To be noted: for change in vivo at 20 mg/kg: Rattus norvegicus, po, read-out: Antianxiety effect, Efficacy; for Antianxiety and antidepressant effects: Table 6. The method, then: Antianxiety test was conducted in accordance with a method adapted from the method of Vogel et al. (Psychopharmacol., 21, 1-7, 1971). Stated more specifically, S.D. line male rats weighing 250-300 g were entirely kept from water for 24 h and then placed in a concrete experimental box. […] The bottom of the box was made of a stainless steel grid, from which electric shock (0.2 mA, 0.5 sec) could be applied to the limbs of rats. The test schedule was as follows: first, the rats were acclimatized to the experimental box and trained for drinking water; this was done for 3 min without electric shock. The quantity of water drunk by the rats was then measured (under non-punishment). Then, the rats were kept from drinking water for 24 h. Thereafter, the quantity of water drunk by each rat was measured (before administration of test compound) under such conditions that an electric shock was applied each time a rat drank one water drop (under punishment).Thirty minutes later, a test drug was administered perorally and after an additional 20 min, the quantity of water drunk by each rat was again measured under punishment (after administration of test compound). The quantity of water drunk by rats will decrease under punishment but it is known that the initial level can be restored by administering an antianxiety agent.
The antianxiety effect of a test compound was calculated by the following formula: [formula]
(§4) The procedure of Test Examples 2 and 3 were repeated except that test compounds were administered perorally in a dose of 10 mg/kg.
(§5) The procedures of Test Example 2 and 3 were repeated, except that test compounds were administered perorally in a dose of 20 mg/kg to check the longevity of their antianxiety and antidepressant effects for 0.5, 2 and 4 h.

A further experiment addresses T2, serotonin 1A receptor (Rattus norvegicus, UniProt P19327).
T2 construct: the cortex and hippocampal tissue were extracted from the brain; from tissue; host or cells: brain cortex and hippocampus of 7-week-old male S.D. rats, washed membrane homogenate
T2 sequence (P19327 1-422): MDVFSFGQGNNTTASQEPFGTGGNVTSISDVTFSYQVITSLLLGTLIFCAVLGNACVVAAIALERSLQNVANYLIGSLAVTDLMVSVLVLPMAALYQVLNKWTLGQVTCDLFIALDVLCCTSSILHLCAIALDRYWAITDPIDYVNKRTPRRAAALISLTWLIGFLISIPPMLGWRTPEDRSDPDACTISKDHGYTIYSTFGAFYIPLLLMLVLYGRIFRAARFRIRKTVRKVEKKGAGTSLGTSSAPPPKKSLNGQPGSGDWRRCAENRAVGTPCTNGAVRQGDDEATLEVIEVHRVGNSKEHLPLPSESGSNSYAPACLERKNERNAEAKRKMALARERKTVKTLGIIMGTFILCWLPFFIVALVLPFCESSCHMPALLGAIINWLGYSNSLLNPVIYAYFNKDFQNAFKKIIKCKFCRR
The experiment is described as follows: Serotonin 1A receptor binding experiment (3H-8-OH-DPAT). Conditions: rat cortex and hippocampal tissue; 0.5 nM 3H-8-OH-DPAT; IC50 in M; read-out: -logIC50 5-HT1A (converted). The method, then:
as §1, §2, §3
A reaction solution containing 0.5 nM (final concentration) of 3H-8-hydroxy-2-(di-n-propylamino)tetralin (8-OH-DPAT), […] and 500 μl of brain homogenate in 1.0 ml (final volume) of a buffer was incubated at 25° C. for 30 min. Thereafter, the reaction solution was filtered by rapid passage through a glass filler. The filter was washed rapidly with an ice-cooled buffer (3 ml) three times, put into a scintillation vial together with a scintillation cocktail, and left to stand overnight at 4° C. On the next day, the vial was agitated well and measurements were conducted with a scintillation counter. To determine the amount of specific binding, the amount of binding in the presence of excess unlabeled serotonin (10 μM) was subtracted from the total amount of binding. As an index for the affinity of a test compound for either receptor, the concentration at which the specific binding of ^3 H-DPAT was inhibited by 50% (IC50, M) was determined using computer software EBDA/LIGAND (Biosoft).

Experiment [2] deals with S.D. line male rats. The experiment is described as follows: Antidepressant effect, compelled swim test (Porsolt), time over which rats remain motionless. Also noted: Antidepressant effect / Antidepressant effect, longevity: scale not given here. Type of experiment: in vivo, rat. Conditions: for inhibition in vivo at 20 mg/kg: Rattus norvegicus, po, 0.5 h, 30 min before swim, read-out: Antidepressant effect, Efficacy. Here is the method: An antidepression test was conducted in accordance with the method of Porsolt et al. (Europ. J. Pharmacol., 47, 379-391, 1978). Stated more specifically, 7-wk old S.D. line male rats were placed in a glass cylinder (18 cm^.phi. ×40 cm^H) for 15 min. The cylinder was filled with water (25° C.) to a depth of 15 cm. Thereafter, the rats were placed in a hot environment (32° C.) for 15 min before they were returned to the cage. Twenty-four hours later, the rats were compelled again to swim in the same cylinder for 5 min and the total time over which the rats remained motionless was measured. A test drug was administered perorally to each animal 30 min before it was compelled to swim for 5 min. Antidepressant agents are known to be capable of specifically reducing the time over which the rats would remain motionless (Psyehopharmaeol., 83, 1-16, 1984, and ibid., 94, 147-160, 1988). The antidepressant effect was calculated by the following formula: [formula]
as §4, §5

The mark [3] stands for this setting: peroral 20 mg/kg, 0.5 h after administration.
Where [4] appears, read: peroral 20 mg/kg, 2.0 h after administration.
Setting [5] is: peroral 20 mg/kg, 4.0 h after administration.

Counter-ions that a name gives are not always drawn.

T1 sequence (P14842 whole entry): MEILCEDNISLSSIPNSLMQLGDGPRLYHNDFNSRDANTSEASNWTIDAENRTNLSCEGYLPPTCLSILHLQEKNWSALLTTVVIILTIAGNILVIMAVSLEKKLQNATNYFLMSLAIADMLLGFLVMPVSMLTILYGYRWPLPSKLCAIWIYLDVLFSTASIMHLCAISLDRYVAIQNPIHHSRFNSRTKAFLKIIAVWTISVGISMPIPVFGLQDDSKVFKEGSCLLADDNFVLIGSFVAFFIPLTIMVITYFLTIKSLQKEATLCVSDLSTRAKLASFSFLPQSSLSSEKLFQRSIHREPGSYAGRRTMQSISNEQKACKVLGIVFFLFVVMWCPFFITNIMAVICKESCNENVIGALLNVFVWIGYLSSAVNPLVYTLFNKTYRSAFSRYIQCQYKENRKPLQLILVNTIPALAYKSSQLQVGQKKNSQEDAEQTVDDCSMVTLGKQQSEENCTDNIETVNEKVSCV

In the case of `O=C(NCCNCC1COc2cc(O)ccc2O1)C12CC3CC(CC(C3)C1)C2` (stereo not shown) [Compound 16, N-{[2-(6-hydroxy-1,4-benzodioxan-2ylmethyl)amino]ethyl}tricyclo[3,3,1,1^3, ^7]decane-1-carboxyamide], the IC50 at serotonin 2 receptor is 158 nM. In the experiment with S.D. line male rats [1] (peroral 20 mg/kg), the change in vivo at 20 mg/kg amounted to 46.5 ± 4.7% and the “Antianxiety effect” value is reported as “almost comparable effects to WY-50324”. Further, the IC50 at serotonin 1A receptor is 2.51 nM.

With `O=C(NCCNCC1COc2cccc(O)c2O1)C12CC3CC(CC(C3)C1)C2` (stereo not shown) [Compound 18, N-{[2-(8-hydroxy-1,4-benzodioxan-2ylmethyl)amino]ethyl}tricyclo[^3,3,1,1^3, ^7]decane-1-carboxyamide], at serotonin 2 receptor, the IC50 is 50.1 nM. For the same compound, in the experiment on S.D. line male rats [1] (peroral 20 mg/kg), the change in vivo at 20 mg/kg worked out at 80.1 ± 6.1% and the “Antianxiety effect” value is reported as “better effects than MDL-73005”. Besides, in the experiment on S.D. line male rats [2] (peroral 20 mg/kg), the inhibition in vivo at 20 mg/kg was found to be 78.5 ± 4.5% and the “Antidepressant effect” value is reported as “better antidepressant effects than WY-50324”. On serotonin 1A receptor, the IC50 is 0.158 nM.

Turning to `COc1cccc2c1OC(CNCCNC(=O)C13CC4CC(CC(C4)C1)C3)CO2` (stereo not shown) [Compound 5, N-{[2-(8-methoxy-1,4-benzodioxan-2ylmethyl)amino]ethyl}tricyclo[3,3,1,1^3'7]decane-1-carboxyamide], the IC50 on serotonin 2 receptor was 10 nM. In the experiment with S.D. line male rats [1] (peroral 20 mg/kg), the change in vivo at 20 mg/kg was determined as 40.9 ± 7.3% and the “Antianxiety effect” value is “almost comparable effects to WY-50324”. Besides, in the experiment with S.D. line male rats [2] (peroral 20 mg/kg), the inhibition in vivo at 20 mg/kg was determined as 97.6 ± 0.9% and the “Antidepressant effect” value is reported as “better antidepressant effects than WY-50324”. At serotonin 1A receptor, the IC50 is 0.347 nM.

In the case of `Nc1ccc2c(c1)OC(CNCCNC(=O)C13CC4CC(CC(C4)C1)C3)CO2` (stereo not shown) [Compound 12, N-{[2-(7-amino-1,4-benzodioxan-2-ylmethyl)amino]ethyl}tricyclo[3,3,1,1^3, ^7]decane-1-carboxyamide], the IC50 at serotonin 2 receptor is 200 nM. In the experiment on S.D. line male rats [1] (peroral 10 mg/kg), the Antianxiety effect is reported as 52.1 ± 2.5; the “Antianxiety and antidepressant effects” value was “superiority”. For the same compound, in the experiment with S.D. line male rats [2] (peroral 20 mg/kg), the inhibition in vivo at 20 mg/kg is 57 ± 5.9% and the “Antidepressant effect” value is “almost comparable effects to WY-50324”. Besides, the IC50 at serotonin 1A receptor is 0.398 nM.

In the case of `Cc1ccc2c(c1)OCC(CNCCNC(=O)C13CC4CC(CC(C4)C1)C3)O2` (stereo not shown) [Compound 3, N-{[2-(6-methyl-1,4-benzodioxan-2ylmethyl)amino]ethyl}tricyclo[3,3,1,1^3, ^7]decane-1-carboxyamide], the IC50 at serotonin 2 receptor is 23.4 nM. In the experiment with S.D. line male rats [1] (peroral 20 mg/kg), the change in vivo at 20 mg/kg amounted to 63.9 ± 6.8% and the “Antianxiety effect” value is given as “comparable effects to MDL-73005”. Also, in the experiment with S.D. line male rats [2] (peroral 20 mg/kg), the inhibition in vivo at 20 mg/kg was 56.8 ± 9% and the “Antidepressant effect” value was “almost comparable effects to WY-50324”. In addition, the IC50 on serotonin 1A receptor is 2.51 nM.

`Cc1cccc2c1OC(CNCCNC(=O)C13CC4CC(CC(C4)C1)C3)CO2` (single isomer, unassigned; (-)) [Compound 7, (-)-N-{[2-(8-methyl-1,4-benzodioxan-2ylmethyl)amino]ethyl}tricyclo[3,3,1^3, ^7]decane-1carboxyamide hydrochloride]: the IC50 is 15.8 nM at serotonin 2 receptor and 0.316 nM on serotonin 1A receptor. The Antianxiety effect in the experiment with S.D. line male rats [1] (peroral 10 mg/kg) stood at 45.4 ± 3.4. For the same compound, the “Antianxiety and antidepressant effects” value in the experiment with S.D. line male rats [1] (peroral 10 mg/kg) is recorded as “superiority”. For the same compound, the figures for the “Antianxiety effect, longevity” value in the experiment on S.D. line male rats [1] (setting [3]), in the experiment on S.D. line male rats [1] (setting [4]) and in the experiment with S.D. line male rats [1] (setting [5]) were 66.0, 51.6 and 26.1, respectively. The compound also registered an Antidepressant effect in the experiment on S.D. line male rats [2] (peroral 10 mg/kg) of 62.7 ± 12.4. In addition, the “Antidepressant effect, longevity” value in the experiment on S.D. line male rats [2] (setting [3]) is given as 72.1; in the experiment on S.D. line male rats [2] (setting [4]), 76.9; in the experiment with S.D. line male rats [2] (setting [5]), 38.1.

On to `O=C(NCCNCC1COc2ccc(Cl)cc2O1)C12CC3CC(CC(C3)C1)C2` (stereo not shown) [Compound 4, N-{[2-(7-chloro-1,4-benzodioxan-2ylmethyl)amino]ethyl}tricyclo[3,3,1,1^3, ^7]decane-1-carboxyamide], for which the IC50 at serotonin 2 receptor was 42.7 nM. Moreover, in the experiment on S.D. line male rats [1] (peroral 20 mg/kg), the change in vivo at 20 mg/kg stood at 76.8 ± 13.7% and the “Antianxiety effect” value is “comparable effects to MDL-73005”. Moreover, in the experiment with S.D. line male rats [2] (peroral 20 mg/kg), the inhibition in vivo at 20 mg/kg stood at 51.9 ± 8.2% and the “Antidepressant effect” value was “almost comparable effects to WY-50324”. The IC50 at serotonin 1A receptor is 5.13 nM.

With `O=C(NCCNCC1COc2ccc(O)cc2O1)C12CC3CC(CC(C3)C1)C2` (stereo not shown) [Compound 17, N-{[2-(7-hydroxy-1,4-benzodioxan-2ylmethyl)amino]ethyl}tricyclo[3,3,^3, ^7]decane-1-carboxyamide], the values for the IC50 at serotonin 2 receptor and at serotonin 1A receptor were 251 nM and 0.251 nM, respectively. The change in vivo at 20 mg/kg in the experiment with S.D. line male rats [1] (peroral 20 mg/kg) came to 66.6 ± 8.7%. In addition, the “Antianxiety effect” value with S.D. line male rats [1] (peroral 20 mg/kg) was “comparable effects to MDL-73005”.

Consider `COc1ccc2c(c1)OC(CNCCNC(=O)C13CC4CC(CC(C4)C1)C3)CO2` (stereo not shown) [Compound 14, N-{[2-(7-methoxy-1,4-benzodioxan-2-ylmethyl)amino]ethyl}tricyclo[3,3,1,1^3, ^7]decane-1-carboxyamide], for which the values for the IC50 on serotonin 2 receptor and on serotonin 1A receptor were 25.1 nM and 0.398 nM, respectively. For the same compound, the inhibition in vivo at 20 mg/kg in the experiment on S.D. line male rats [2] (peroral 20 mg/kg) stood at 46.9 ± 7.1%.
